# Test results: patent US12128015B2, “APE/REF1 inhibitors for the treatment of cancer” (Chapman University, priority 2021, dated 2024)
# Entries after “also recorded” stand apart in the source; their conditions may differ. Where two headings read alike, the source gives them in different places.
# Experiments:
# [1] = tested on: human melanoma A375 and SK-Mel-28 cells; assay: MTT cytotoxicity in human melanoma A375 and SK-Mel-28 cells (Table 1); assay type: cell-based; conditions: for IC50: read-out: IC50 (50% inhibition of cell survival), MTT assay; for anti-melanoma activity (MTT): in words
# Description: (§1) All the cells were passaged once reaching 70-90% confluence.
# (§2) (MTT) metabolized by alive cells.
# A375 melanoma cells = assay: MTT cell viability assay, A375 melanoma cells; assay type: cell-based, human; conditions: for cell viability: 1 μM, A375 cells (FIG. 2C), control = vehicle 0.1% DMSO
# Description: as §1, §2
# [2] = tested on: human breast cancer cells; conditions: collective cell migration; chemo-invasion and colony formation with docetaxel; cited from earlier work
# [3] = Phase I trial, cited from earlier work
# AP-1 transactivation = assay: Luciferase assay to determine AP-1 transactivation activities in A375 cells; assay type: cell-based, human; conditions: for inhibition of H2O2-activated AP-1 transactivation: compound 10 μM
# Description: FIG. 3. Inhibition of AP-1 transcriptional activation in human melanoma A375 cells by compound 2. A375 cells were transfected with an AP-1 luciferase reporter plasmid. […] After treatments, the cells were harvested to determine the luciferase activity, expressed as a fold of control without any treatment. The results normalized by cell numbers represent means±S.D of triplicates. *, p<0.05 compared to control; **, p<0.05 compared to H2O2-treatment.
# 3×AP1pGL3 (3×AP-1 in pGL3-basic; Addgene plasmid #40342), which contains three canonical AP-1 binding sites (TGACTCA) upstream of a minimal promoter fragment containing a TATA box in the luciferase reporter plasmid pGL3-basic. 3×AP1pGL3 was transfected to human melanoma A375 cells using Lipofectamine 2000 following the manufacturer's instructions (Invitrogen). […]
# After different treatments, the cells were rinsed twice with phosphate-buffered saline (PBS). Cells were then scraped from the plates in PBS and pelleted for 4 min at 4° C. in a microcentrifuge at 12,000 rpm. Cell pellets were resuspended in 100 μL luciferase lysis buffer for luciferase assay as described (Promega). Luciferase activity measured in relative light units reflects the AP-1 transcription rate and was detected by a SpectraMax M5 UV VIZ Plate Reader. Cell count was conducted for normalization. All the samples were studied in duplicate, and readings were taken in triplicate. Each experiment was repeated at least two times.
# melanoma cell lines = assay: Toxicity of PNRI-299 in the inventors' tested melanoma cell lines; assay type: cell-based
# [4] = tested on: Hermes 1 melanoblast cells; conditions: 72 h
# Sk-Mel-28 melanoma cells = conditions: read-out: IC50, cell viability; Sk-Mel-28 cells, MTT, 72 h
# Protocol: Human malignant melanoma cells (A375, CRL-1619™; Sk-Mel-28, HTB-72™) were purchased from ATCC®. Cells were cultured in Dulbecco's Modified Eagle Medium (DMEM) (ATCC #30-2002) or Eagles' Minimum Essential Medium (EMEM) (ATCC #30-2003) supplemented with 10% fetal bovine serum (FBS) (ATCC #30-2020) at 37° C. in 5% CO2 incubator. All the cells were passaged once reaching 70-90% confluence.
# [5] = Water solubility: drug precipitation in the media; assay type: physicochemical
# HT1080 cells = conditions: cited from earlier work
# [6] = tested on: Hermes 4A melanoblast cells; assay: MTT cell viability assay, Hermes 4A melanoblast cells; assay type: cell-based, human; conditions: 72 h treatment
# Description: as §2
# [7] = HPLC analysis of the drug suspension after compounding; assay type: physicochemical; conditions: DMSO solution diluted in normal saline, sonicated 15 min at room temperature
# Protocol: (§3) Given the limited water solubility, lead compound 2 (in DMSO) was further diluted in normal saline, the drug suspension, and sonicated at room temperature for 15 min. before injection to nude mice. […] The drug suspension was made fresh daily and injected into mice immediately after the compounding.
# [8] = tested on: A375 metastatic melanoma xenograft; assay: In vivo xenograft melanoma (A375 cells in nude mice)
# Protocol: FIG. 4. Compound 2 inhibited the tumor growth of human melanoma in vivo. Metastatic melanoma A375 cells were injected into male nude mice subcutaneously on the flank. Compound 2 was administered i.p. daily at the dose of 5 mg/kg. The growth of the tumor was measured daily, and tumor volume was measured by digital calipers and determined using the formula (mm^3)=[L×(W2)]/2. Tumor growth was presented as a fold of increase in size (mean±SD). *, p<0.05 compared to control (N=7; Compound 2 group, N=5).
# The Institutional Animal Care and Use Committee approved all the animal procedures at Chapman University (IACUC #2020-1131). Male nude mice (Nu/Nu) were purchased from Charles River and were housed and maintained in the Chapman University vivarium under pathogen-free conditions. Human A375 metastatic melanoma cells were injected subcutaneously into the mouse's flank (1×10^6 cells per mouse). Three days-post tumor cell injection, mice were randomized into different groups. The treatment group was injected with compound 2 (5 mg/kg/day, i.p.) for 21 days. The growth of the tumors was monitored three times a week and measured using digital Vernier calipers. The size of the tumors was calculated as tumor volume (mm^3)=[L×(W2)]/2. The mice were sacrificed at the end of the experiment.
# as §3
# [9] = tested on: Hermes 3A melanoblast cells; assay: MTT cell viability assay, Hermes 3A melanoblast cells; assay type: cell-based, human; conditions: 72 h treatment
# Description: as §2
# [10] = 72 h, human melanoma A375 and SK-Mel-28 cells (compound 11: average of the two lines)
structure (smiles),measurement,setting,value
O=C(/C=C/c1ccc(O)cc1)NCCCCCCCCCCCCNC(=O)/C=C/c1ccc(O)cc1 [Compound 4],IC50,[1]; [10],> 10000 nM
same,anti-melanoma activity (MTT),[1],significant loss of anti-tumor activity compared to compound 2
CCCCCCCCC/C(=C\C1=C(C)C(=O)C(OC)=C(OC)C1=O)C(=O)O [Compound E3330],cell viability,A375 melanoma cells,102.6 % of control
same,concentration at which inhibitory activity was evident,[2],50 µM
same,patients with disease stabilization for ≥4 cycles,[3]; cancer patients,six of nineteen
same,"duration of treatment with stable disease, one melanoma patient",[3],245 days
same,inhibition of H2O2-activated AP-1 transactivation,"AP-1 transactivation; H2O2 100 μM, 48 h","only reduced the AP-1 activity marginally, which was not statistically significant"
"O=C(/C=C/c1ccc(O)cc1)NCCCCCCNC(=O)/C=C/c1ccc(O)cc1 [Compound 5, (2E,2′E)-N,N′-(Hexane-1,6-diyl)bis(3-(4-hydroxyphenyl)acrylamide)]",IC50,"[1]; Homo sapiens, 72 h",> 50000 nM
same,anti-melanoma activity (MTT),[1],loss of anti-melanoma activity compared to compound 2
"O=C(/C=C/c1ccccc1)NCCCCCCCCCCCCNC(=O)/C=C/c1cccc(O)c1 [Compound 9, (E)-N-(12-Cinnamamidododecyl)-3-(3-hydroxyphenyl) acrylamide]",IC50,"[1]; Homo sapiens, 72 h",> 10000 nM
same,anti-melanoma activity (MTT),[1],poor anti-melanoma activity
"O=C(/C=C/c1cccc(O)c1)NCCCCCCCCCCCCNC(=O)/C=C/c1cccc(O)c1 [Compound 7, (2E,2′E)-N,N′-(dodecane-1,12-diyl)bis(3-(3-hydroxyphenyl)acrylamide)]",IC50,"[1]; Homo sapiens, 72 h",> 10000 nM
same,anti-melanoma activity (MTT),[1],significant loss of anti-tumor activity compared to compound 2
N#Cc1cccc(-n2c(=O)n3n(c2=O)C(C(=O)NCc2ccccc2)=CC(=O)C3)c1 [PNRI-299],concentration up to which neither toxicity nor synergistic effects were observed,melanoma cell lines,> 100 µM
"O=C(C=Cc1ccccc1)NCCCCCCCCCCCCNC(=O)/C=C/c1ccc(O)cc1 [Compound 11, (E)-N-(12-Cinnamamidododecyl)-3-(4-hydroxyphenyl) acrylamide]",IC50,"[4]; read-out: IC50, cell viability, Hermes 1 melanoblast cells, MTT",274 nM
same,cell viability,A375 melanoma cells,19 % of control
same,IC50,"A375 melanoma cells; A375 cells, MTT, 72 h",88 nM
same,IC50,Sk-Mel-28 melanoma cells,70 nM
same,IC50,[1]; [10],79 ± 13 nM
same,anti-melanoma activity (MTT),[1],potent cytotoxic effect
same,precipitation concentration relative to compound 2,[5],approximately 8 folds
same,water solubility and stability,[5]; compared to compound 2,improved water solubility and stability compared to compound 2
same,concentration at which drug precipitation was evident,[5]; in the media,-20 µM
same,inhibition of H2O2-activated AP-1 transactivation,"AP-1 transactivation; H2O2 100 μM, 48 h",failed to inhibit
"NCCCCCCCCCCCCNC(=O)C=Cc1ccccc1 [Compound 10, N-(12-Aminododecyl)cinnamamide]",IC50,"[1]; Homo sapiens, 72 h",> 25000 nM
O=C(O)c1cc2cccc([N+](=O)[O-])c2[nH]1 [CRT0044876],concentration up to which no toxicity was seen,"HT1080 cells; HT1080 cells, CRT0044876 alone",> 400 µM
same,concentration at which synergistic enhancement of methyl methanesulphonate cytotoxicity was evident,HT1080 cells,200 µM
"NCCCCCCCCCCCCNC(=O)/C=C/c1cccc(O)c1 [Compound 8, (E)-N-(12-Aminododecyl)-3-(3-hydroxyphenyl) acrylamide]",IC50,"[1]; Homo sapiens, 72 h",> 25000 nM
"O=C(/C=C/c1ccccc1)NCCCCCCNC(=O)/C=C/c1ccccc1 [Compound 12, (2E,2′E)-N,N′-(hexane-1,6-diyl)bis(3-phenylacrylamide)]",IC50,"[1]; Homo sapiens, 72 h",> 10000 nM
"O=C(/C=C/c1ccccc1)NCCCCCCCCCCCCNC(=O)/C=C/c1ccccc1 [Compound 2, (2E,2′E)-N,N′-(Dodecane-1,12-diyl)bis(3-phenylacrylamide)]",cytotoxicity,[4]; human,"more sensitive to compound 2, but the cytotoxicity was not elevated with increasing the concentrations"
same,cytotoxicity,[6],no significant cytotoxicity
same,chemical stability after compounding,[7],no evidence of chemical structural change after compounding
same,dose dependence of cytotoxicity,"[1]; MTT, 72 h",Cytotoxicity is not dose-
same,tumor size,"[8]; 5 mg/kg i.p. daily, after 21-day treatment, nude mice",44.7 % of control
same,systemic toxicity,"[8]; 5 mg/kg i.p. daily, nude mice",without producing any apparent systemic toxicities; also recorded: no significant systemic toxicity observed
same,tumor growth inhibition compared to the control group,"[8]; 5 mg/kg i.p., xenograft mouse model",44.7%
same,cytotoxicity,[9],no significant cytotoxicity
same,H2O2-activated AP-1 activity (luciferase),"AP-1 transactivation; compound 0.5 μM, H2O2 100 μM, 48 h, H2O2 alone 2.3-fold of control",95.7 % of control
same,inhibition of basal AP-1 dependent transcription,AP-1 transactivation; without H2O2,did not display any inhibition
